What was measured:
herpes simplex virus = assay type: cell-based

SMILES | % Effectiveness (vaccinia virus) [%] | Effective (vaccinia virus) | Effective [uM] (vaccinia virus) [µM] | inhibition of vaccinia virus infection (in words) (vaccinia virus) | state of the cells (vaccinia virus) | spread of virus over time (vaccinia virus) | reversal of the antiviral effect of anisomycin (herpes simplex virus)
C[C@]12CC[C@@H]3c4ccc(O)cc4CC[C@H]3[C@@H]1CC[C@@H]2O [17-B Estradiol, 17-B-Estradiol] | 50 | ✓ | 100 | inhibited infection with vaccinia virus |  |  | 
COc1ccc(C[C@@H]2NC[C@@H](O)[C@@H]2OC(C)=O)cc1 [ANISOMYCIN, [(2S,3R,4R)-4-hydroxy-2-[(4-methoxyphenyl)methyl]pyrrolidin-3-yl]acetate] |  |  |  |  | the cells were healthy |  | 
CC(C)(c1ccc(OCC2CO2)cc1)c1ccc(OCC2CO2)cc1 (stereo not drawn) [BADGE] | 75 | ✓ | 50 to 100 | inhibited infection with vaccinia virus |  |  | 
C[C@]12CC[C@H](O)CC1=CC[C@@H]1[C@@H]2CC[C@]2(C)C(=O)CC[C@@H]12 [DHEA] | 99 | ✓ | 30 | inhibited infection with vaccinia virus |  | the virus usually starts to spread after day 2 | 
N#CC(=C(/N)Sc1ccccc1N)/C(C#N)=C(\N)Sc1ccccc1N [U0126] |  |  |  |  |  |  | this effect was reversed

From US20140220690A1, “MAMMALIAN GENES INVOLVED IN INFECTION” (priority 2009, published 2014)
